The text below walks through data of ChEMBL document CHEMBL1857833, “Screening and optimization of specific chemical series against human African Trypanosomiasis (HAT)”.

In brackets after ≈: the same amount, converted by molar mass.

The target in data set [1] is T1, MDR1 (ABCB1) (Homo sapiens, UniProt P08183). Nature of the data set: DNDI: % of compound recovered from membrane of apical to basolateral permeability assay in MDCK cells transfected with human MDR1 after 60 mins at a concentration of 3uM. In kind it is ADME, cell-based, Canis lupus familiaris. Conditions: dog, read-out: Mem Rec.
T1 sequence (P08183 whole entry): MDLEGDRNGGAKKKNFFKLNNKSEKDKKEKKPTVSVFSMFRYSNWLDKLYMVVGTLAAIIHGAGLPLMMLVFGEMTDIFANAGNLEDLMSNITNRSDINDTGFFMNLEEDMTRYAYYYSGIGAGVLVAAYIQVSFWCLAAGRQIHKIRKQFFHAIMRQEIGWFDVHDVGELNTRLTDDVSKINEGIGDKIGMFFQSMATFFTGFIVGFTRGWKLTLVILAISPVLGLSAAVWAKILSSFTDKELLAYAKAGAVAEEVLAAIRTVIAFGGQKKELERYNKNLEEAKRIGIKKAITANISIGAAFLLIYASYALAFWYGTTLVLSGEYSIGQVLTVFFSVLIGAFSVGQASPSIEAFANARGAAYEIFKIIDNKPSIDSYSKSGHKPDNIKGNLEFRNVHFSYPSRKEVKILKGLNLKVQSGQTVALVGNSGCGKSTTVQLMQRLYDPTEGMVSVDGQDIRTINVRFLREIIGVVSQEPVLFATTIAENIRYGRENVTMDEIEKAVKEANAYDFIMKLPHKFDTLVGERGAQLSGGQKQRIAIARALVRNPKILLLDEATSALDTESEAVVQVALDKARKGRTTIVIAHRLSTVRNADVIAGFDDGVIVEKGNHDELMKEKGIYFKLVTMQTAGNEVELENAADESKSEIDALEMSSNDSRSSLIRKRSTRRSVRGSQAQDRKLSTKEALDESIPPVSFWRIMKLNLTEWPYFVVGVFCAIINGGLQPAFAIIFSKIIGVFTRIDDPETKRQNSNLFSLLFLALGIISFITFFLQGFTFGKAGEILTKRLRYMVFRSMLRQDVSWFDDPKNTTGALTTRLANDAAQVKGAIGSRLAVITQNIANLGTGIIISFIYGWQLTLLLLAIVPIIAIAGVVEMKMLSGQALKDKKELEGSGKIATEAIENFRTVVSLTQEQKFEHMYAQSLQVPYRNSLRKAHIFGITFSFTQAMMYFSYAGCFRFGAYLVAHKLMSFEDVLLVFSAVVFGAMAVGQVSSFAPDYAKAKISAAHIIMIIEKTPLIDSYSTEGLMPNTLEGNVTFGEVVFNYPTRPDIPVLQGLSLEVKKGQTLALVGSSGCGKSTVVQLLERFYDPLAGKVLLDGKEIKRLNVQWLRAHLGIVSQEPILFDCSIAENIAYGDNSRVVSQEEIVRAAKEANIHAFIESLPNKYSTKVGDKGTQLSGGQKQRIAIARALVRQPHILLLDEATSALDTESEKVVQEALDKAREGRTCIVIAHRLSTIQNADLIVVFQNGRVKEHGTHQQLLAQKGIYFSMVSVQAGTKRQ
For data set [2], the target named is T1, MDR1 (ABCB1). Nature of the data set: DNDI: % of compound recovered from apical to basolateral permeability assay in MDCK cells transfected with human MDR1 after 60 mins at a concentration of 3uM in the presence of GF120918. The data set is classed as ADME, cell-based, Canis lupus familiaris. As to conditions: dog, MDCK-MDR1, with GF120918 (concentration not stated).

Data set [3] is described as follows: DNDI: Lipophilicity measured in Chromatographic hydrophobicity index (CHI) assay, pH 7.4. Conditions: buffer. The data set is classed as physicochemical.
Data set [4] addresses T1, MDR1 (ABCB1). The data set is described as follows: DNDI: % of compound recovered from apical to basolateral permeability assay in MDCK cells transfected with human MDR1 after 60 mins at a concentration of 3uM. As to conditions: dog. The data set is classed as ADME, cell-based, Canis lupus familiaris.
The target of data set [5] is T1, MDR1 (ABCB1). Nature of the data set: DNDI: % of compound recovered from membrane of apical to basolateral permeability assay in MDCK cells transfected with human MDR1 after 60 mins at a concentration of 3uM in the presence of GF120918. In kind it is ADME, cell-based, Canis lupus familiaris. Conditions: dog, MDCK-MDR1, with GF120918 (concentration not stated); read-out: Mem Rec.

For data set [6], the target named is T1, MDR1 (ABCB1). The data set is described as follows: (§1) DNDI: Apparent permeability from apical to basolateral side of the MDCK cell transfected with human MDR1after 60 mins at a concentration of 3uM. In kind it is ADME, cell-based, Canis lupus familiaris. As to conditions: dog, MDCK-MDR1.
A short description of data set [7]: DNDI: Solubility in phosphate buffered saline at pH7.4 measured by nephelometry at room temperature (NEPH-RT). In kind it is physicochemical. Conditions: pH 7.4.
The nature of data set [8]: (§2) DNDI: Cytotoxicity against L929 mouse fibroblasts, 72 hour. In kind it is toxicity, cell-based. Conditions: mouse, L929 mouse fibroblasts.
In data set [9] the target is T1, MDR1 (ABCB1). The data set is described as follows: (§3) DNDI: Efflux ratio for permeability from basolateral to apical side to apical to basolateral side of MDCK cells transfected with human MDR1. The data set is classed as ADME, cell-based, Canis lupus familiaris. As to conditions: dog, MDCK-MDR1; read-out: Calculated Ratio.
Data set [10] relates to Trypanosoma brucei. The data set is described as follows: DNDI: Inhibition of Human African Trypanosomiasis, SBRI 427, in vitro. The data set is classed as functional, organism-based.
The nature of data set [11]: DNDI: half-life in mouse S9 microsomes at a concentration of 1uM. In kind it is ADME, subcellular, Liver, S9 fraction.
The nature of data set [12]: in vitro. As to conditions: mouse, liver microsomes, t (1 / 2).
Description: DNDI: half life in mouse liver microsomes at a concentration of 1uM
Data set [13] deals with Trypanosoma brucei. The data set is described as follows: DNDI: Mean survival time in days (MSD) of mice after p.o. administration of Human African Trypanosomiasis (HAT), STIB 795, in vivo at 100 mg/kg/day for 4 days. The data set is classed as functional, Mus musculus. As to conditions: route oral.
The conditions of data set [14]: mouse, microsomes, 1 µM.
Description: (§4) DNDI: in vitro intrinsic clearance in mouse liver microsomes at a concentration of 1uM
Data set [15] relates to Trypanosoma brucei. The data set is described as follows: DNDI: Mean survival time in days (MSD) of mice after intraperitoneal injection of Human African Trypanosomiasis (HAT), STIB 795, in vivo at 50 mg/kg/day for 4 days. In kind it is functional, Mus musculus.
For data set [16] the following is noted: human, microsomes, 1 µM.
Description: (§5) DNDI: half life in human liver microsomes at a concentration of 1uM
Data set [17] can be described thus: DNDI: Cytotoxicity against L929 mouse fibroblasts, CYTO-SP, 24 hour. The data set is classed as toxicity, cell-based. Conditions: mouse, L929 mouse fibroblasts.
The conditions of data set [18]: human, microsomes, 1 µM. The source holds these as a separate data set.
Description: (§6) DNDI: in vitro intrinsic clearance in human liver microsomes at a concentration of 1uM
Data set [19] in a line: in vitro. As to conditions: human, liver microsomes, t (1 / 2). For orientation: Liver microsomes are vesicles of endoplasmic reticulum, rich in cytochrome P450 enzymes.
Description: as §5
Data set [20] is described as follows: in vitro. Conditions: human, liver microsomes, CLint in vitro.
Description: as §6
A short description of data set [21]: in vitro. Conditions: mouse, liver microsomes.
Description: as §4
In data set [22] the test system is Trypanosoma brucei. Nature of the data set: DNDI: Mean survival time in days (MSD) of mice after intraperitoneal injection of Human African Trypanosomiasis (HAT), EATRO 110, in vivo at 50 mg/kg/day for 4 days. The data set is classed as functional, Mus musculus.
Data set [23] is described as follows: DNDI: % of compound remaining in mouse S9 microsomes at a concentration of 1uM after 60 mins. In kind it is ADME, subcellular, Liver, S9 fraction.
Data set [24] in a line: DNDI: % of compound remaining in rat S9 microsomes at a concentration of 1uM. In kind it is ADME, subcellular, Liver, S9 fraction.
The target in data set [25] is T1, MDR1 (ABCB1). Nature of the data set: DNDI: % of compound recovered from basolateral to apical permeability assay in MDCK cells transfected with human MDR1 after 60 mins at a concentration of 3uM. In kind it is ADME, cell-based, Canis lupus familiaris. Conditions: dog.
The target of data set [26] is T2, ATP-dependent translocase ABCB1 (Homo sapiens, UniProt P08183). Nature of the data set: DNDI: Apparent permeability from basolateral to apical side of the MDCK cell transfected with human MDR1after 60 mins at a concentration of 3uM. The data set is classed as ADME, cell-based, Canis lupus familiaris. Conditions: dog, 1 h.
T2 sequence (P08183 whole entry): as above
In data set [27] the target is T2, ATP-dependent translocase ABCB1. Described as §1. In kind it is ADME, cell-based, Canis lupus familiaris. As to conditions: dog, mdck, 1 h, 3 µM.
The target is the same in data set [28]. The data set is described as §3. As to conditions: dog, mdck. In kind it is ADME, cell-based, Canis lupus familiaris.
Another data set relates to L929. The data set is described as §2. In kind it is toxicity, cell-based. As to conditions: l929.
[29] abbreviates: Trypanosoma brucei, SBRI 427, read-out: IC50.

In general, chromatographic logD refers to a lipophilicity value derived from retention on a column. A higher chromatographic logD goes with higher lipophilicity. A word on the Papp A→B: it is how fast a substance crosses the layer from the apical side. By kinetic solubility is commonly meant solubility judged after dilution from a stock solution rather than from solid. As usually defined, the IC50 is the concentration at which inhibition is half-maximal. For orientation: half-life means the time in which the quantity being followed falls by half. A high value points to slow loss. With `CC(C)(C)c1cc(N2CCNCC2)n2nc(-c3ccc(F)cc3)cc2n1`, the recovery at 1 h, 3 µM at MDR1 (ABCB1) [1] was determined as 88.4%; at MDR1 (ABCB1) [2] it was 91%; on MDR1 (ABCB1) [4] it was 103%; on MDR1 (ABCB1) [5] it was 76.1%. Moreover, the chromatographic logD in data set [3] came out at 4.15. In addition, the apparent permeability from apical to basolateral (Papp A→B) at 1 h, 3 µM at MDR1 (ABCB1) [6] worked out at 10.3 ×10⁻⁶ cm/s. For the same compound, the kinetic solubility in data set [7] was 50 µM (≈ 17.7 µg/mL). For the same compound, the IC50 at 72 h in [8] was 2.75 µg/mL (≈ 7.78 µM). At MDR1 (ABCB1) [9], the efflux ratio was 0.08. Moreover, the half-inhibitory concentration (IC50) in the data set on Trypanosoma brucei [10] (setting [29]) was found to be 1.11 µg/mL (≈ 3.14 µM). This compound also returned a half-life at 1 µM in data set [11] of over 350 min.
For `CCCCc1ccc(-c2nc(CNCCCN(C)C)co2)cc1`, the half-life at 1 µM in the data set “in vitro [12]” was 96 min. This compound also displayed a chromatographic logD in data set [3] of 5.07. Also, the MSD in the data set on Trypanosoma brucei [13] and in the data set on Trypanosoma brucei [15] was 7 days each time. In data set [14], this compound returned a CLint in vitro of 9 µL/min/mg. The compound also had a solubility (kinetic) in data set [7] of under 1 µM. In [8], this compound gave an IC50 at 72 h of 1.4 µg/mL (≈ 4.44 µM). Also, the IC50 in the data set on Trypanosoma brucei [10] (setting [29]) is 0.07 µg/mL (≈ 0.222 µM).
What is called microsomal CLint is the rate of metabolic loss divided by the concentration. For the compound `COc1ccc(/C(CNC2CCCCC2)=N/O)cc1`, in [16], the “t (1 / 2)” value is 11 min. The half-life at 1 µM in “in vitro [12]” was 4 min; in the data set “in vitro [19]” it was 13 min. The chromatographic logD in [3] came to 2.93. Moreover, the CLint in vitro in data set [14] turned out to be 224 µL/min/mg; in data set [18], 75 µL/min/mg. The compound also returned an IC50 at 24 h in data set [17] of over 50 µg/mL. This compound also showed a kinetic solubility in data set [7] of 13 µM (≈ 3.41 µg/mL). The results for the intrinsic metabolic clearance (microsomal CLint) at 1 µM in the data set “in vitro [20]” and in “in vitro [21]” were 66 µL/min/mg and 235 µL/min/mg, respectively. Further, the IC50 with Trypanosoma brucei [10] (setting [29]) came out at 4.47 µg/mL (≈ 17 µM).
What is called amount remaining is the share of the starting amount still present when the sample was taken. High values mean greater stability, low ones a greater loss. In the data set “in vitro [12]”, `CCCCc1ccc(-c2nc(CNCCC3CCCN3C)co2)cc1` (centres undefined) gave a half-life at 1 µM of 37 min. In data set [3], this compound had a chromatographic logD of 4.69. In addition, the CLint in vitro in data set [14] came out at 23 µL/min/mg. In addition, the figures for the MSD in the data set on Trypanosoma brucei [22] and in the data set on Trypanosoma brucei [15] were 10 days and 7 days, respectively. Moreover, the fraction remaining at 1 h, 1 µM in data set [23] is 57.4%. In data set [7], this compound registered a solubility (kinetic) of 100 µM (≈ 34.1 µg/mL). In data set [8], this compound displayed a 50% inhibitory concentration (IC50) at 72 h of 4.21 µg/mL (≈ 12.3 µM). Moreover, the half-inhibitory concentration (IC50) with Trypanosoma brucei [10] is 0.21 µg/mL (≈ 0.615 µM); in the data set on Trypanosoma brucei [10] (setting [29]), 0.19 µg/mL (≈ 0.556 µM). In data set [24], this compound gave a fraction remaining at 1 µM of 3.27%.
As a reminder, the Papp is the rate of passage across a membrane or cell layer, normalised by area and donor concentration. In the case of `CN(C)CCNc1nc(Oc2cccc3ccccc23)c2sccc2n1`, the recovery at 1 h, 3 µM at MDR1 (ABCB1) [25] worked out at 110%; on MDR1 (ABCB1) [4], 77.5%. Also, the chromatographic logD in data set [3] was 4.85. The apparent permeability coefficient (Papp) in data set [26] turned out to be 21.11 ×10⁻⁶ cm/s; in data set [27] it was 11.62 ×10⁻⁶ cm/s. The kinetic solubility in [7] came out at 100 µM (≈ 36.4 µg/mL). This compound also had a 50% inhibitory concentration (IC50) at 72 h in [8] of 3.48 µg/mL (≈ 9.55 µM). In data set [28], the “Calculated Ratio” value is reported as 0.45. In addition, the IC50 in the data set with Trypanosoma brucei [10] (setting [29]) came out at 1.28 µg/mL (≈ 3.51 µM).
For `CN1CCCC1CCNCc1coc(-c2ccc(OC3CCCC3)cc2)n1` (centres undefined), in the data set on Trypanosoma brucei [22], the MSD is under 1 days. In data set [8], this compound showed an IC50 at 72 h of 1.33 µg/mL (≈ 3.6 µM). Moreover, the values for the concentration for half-maximal inhibition (IC50) in the data set on L929 and in the data set on Trypanosoma brucei [10] (setting [29]) were 1.42 µg/mL (≈ 3.84 µM) and 0.22 µg/mL (≈ 0.595 µM), respectively.
